The results in this text go back to patent US20240269298A1, “PHOSPHONYL DERIVATIVE, AND COMPOSITION AND PHARMACEUTICAL APPLICATION THEREOF” (XIZANG HAISCO PHARMACEUTICAL CO., LTD., priority 2021, published 2024).

Read-outs that look alike come from different tables or passages of the source. Bounds are passed on as bounds.

By IC50 is commonly meant the concentration that gives 50% inhibition. A word on the AUC: it is concentration integrated over time. Lower therefore signals less exposure. The term half-life denotes the time in which the quantity being followed falls by half. Higher therefore signals slow loss.

The subject of data set [1] is Ba/F3-TEL-EGFR-T790M-L858R-C797S cells. Put plainly: Inhibitory activity on proliferation of Ba/F3-TEL-EGFR-T790M-L858R-C797S cells (CellTiter-Glo, 72 h). The data set is classed as cell-based. How it is done:
Ba/F3-TEL-EGFR-T790M-L858R-C797S cells were cultured in an incubator at 37° C. with 5% CO2. The cells in the logarithmic phase were collected, counted and plated in a 96-well plate at a density of 2000 cells/well. The compounds at different concentrations were added, and a vehicle control group (cells plus DMSO) and a blank control group (cell culture mediums plus DMSO) were provided, wherein the concentration of DMSO was both 0.1%. The cell culture plate was cultured in an incubator at 37° C. with 5% CO2 for 72 hours. After the incubation was completed, the cell culture plate was removed and allowed to equilibrate to room temperature for 10 min. […] The plate was placed at room temperature for 10 min, and then […] signal values were measured using a microplate reader (SpectraMax Paradigm). […] The inhibition rates corresponding to different concentrations of compounds were calculated, and using the GraphPad Prism software, the inhibition rate curves were plotted, and IC50 values were calculated. wherein RLUDrug was the readout of the drug-treated group, RLUMax was the readout of the control group, and RLUMin was the readout of the blank group.
Background: In ATP-based viability assays light output follows the ATP content of the culture.

In data set [2] the test system is NCI-H1975 EGFR-L858R-T790M-C797S cells. Put plainly: Inhibitory activity on proliferation of NCI-H1975 EGFR-L858R-T790M-C797S cells (CellTiter-Glo, 72 h). In kind it is cell-based. The settings on record: Homo sapiens. The method in brief: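 Cells (1500/well) exposed to graded compound concentrations for 72 h at 37 °C in hygromycin-free RPMI1640 + 10% FBS, 0.1% DMSO vehicle. Viability by CellTiter-Glo luminescence relative to vehicle; IC50 from nonlinear sigmoidal dose-survival fit.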

The test system of data set [3] is NCI-H1975 (EGFR-L858R-T790M) cells. Put plainly: Inhibitory activity on proliferation of NCI-H1975 (EGFR-L858R-T790M) cells (CTG, 72 h). The settings on record: Homo sapiens. In kind it is cell-based. The method in brief: (§1)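 IC50 values come from S-shaped dose-survival fits of CTG signal expressed as % of vehicle. Compound exposure lasted 72 h at 37 °C with 0.1% DMSO; seeding was 3000 A431 cells/well in DMEM+10% FBS and 1000 NCI-H1975 cells/well in RPMI1640+10% FBS.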

The test system of the next data set is A431 (EGFR-WT) cells. The data set is described as follows: Inhibitory activity on proliferation of A431 (EGFR-WT) cells (CTG, 72 h). Conditions: Homo sapiens, A-431. In kind it is cell-based. The method in brief: as §1
Data set [4] can be described thus: Pharmacokinetic test in mice. The data set is classed as in vivo. Conditions: male, ICR, mouse, po, administration i.g. (10 mg/kg), plasma. A digest of the protocol:
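Male ICR mice (20-25 g), fasted 12-14 h before dosing and fed 4 h after, received a single intravenous or intragastric dose. Orbital plasma sampled from 0 to 24 h (5 min-24 h points); LC-MS/MS quantitation for PK parameters and bioavailability.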

Setting [5] is: read-out: IC50 (value in brackets).

As to `COc1cc(N2CCC(CN3CCN(c4ccc5c(c4)C(=O)N(C4CCC(=O)NC4=O)C5=O)CC3)CC2)c(-c2cnn(C)c2)cc1Nc1ncc(Br)c(Nc2ccc(C3CC3)cc2P(C)(C)=O)n1` (stereo not shown) [Compound 106, 5-(4-((1-(4-((5-bromo-4-((4-cyclopropyl-2-(dimethylphosphoryl)phenyl)amino)pyrimidin-2-yl)amino)-5-methoxy-2-(1-methyl-1H-pyrazol-4-yl)phenyl)piperidin-4-yl)methyl)piperazin-1-yl)-2-(2,6-dioxopiperidin-3-yl)isoindoline-1,3-dione], the IC50 in data set [1] is 15.6 nM; in data set [2] (read-out: IC50 (class symbol)), below 200 nM; in data set [2] (read-out: IC50 (value)), 112 nM; in data set [3] (read-out: IC50 (class symbol)) it was below 100 nM; in data set [3] (setting [5]), 54 nM; in the data set on A431 (EGFR-WT) cells, at least 10000 nM. Further, the AUC in data set [4] stood at 145 µg·h/mL. The same compound gave a half-life in data set [4] of 18 h.
As to `COc1cc(N2CCC(CN3CCN(c4ccc5c(c4)C(=O)N(C4CCC(=O)NC4=O)C5=O)CC3)CC2)c(-c2cnn(C)c2)cc1Nc1ncc(Cl)c(Nc2ccc(C3CC3)cc2P(C)(C)=O)n1` (stereo not shown) [Compound 107, 5-(4-((1-(4-((5-chloro-4-((4-cyclopropyl-2-(dimethylphosphoryl)phenyl)amino)pyrimidin-2-yl)amino)-5-methoxy-2-(1-methyl-1H-pyrazol-4-yl)phenyl)piperidin-4-yl)methyl)piperazin-1-yl)-2-(2,6-dioxopiperidin-3-yl)isoindoline-1,3-dione], the IC50 was 15.6 nM in data set [1]; below 200 nM in data set [2] (read-out: IC50 (class symbol)); 45 nM in data set [2] (read-out: IC50 (value)); below 100 nM in data set [3] (read-out: IC50 (class symbol)); 56 nM in data set [3] (setting [5]); at least 10000 nM in the data set with A431 (EGFR-WT) cells. Also, the AUC in data set [4] was found to be 130 µg·h/mL. This compound showed a half-life in data set [4] of 13.9 h.
